Common to all, as to assay type: cell-based
One data set concerns THP-1 cells. The data set is described as follows: Cell viability assay (MTT). The note with it: compound 5 μM, 18 hours incubation; normalized to DMSO as 100%; mean. The protocol: THP-1 cells were plated in 96-well plates (10^5 cells/well) in 100 μL RPMI supplemented with 10% FBS, 100 U/mL penicillin and 100 μg/ml streptomycin. Compounds were dissolved in DMSO at 1 mM stock solution and were further diluted to 10 μM in the assay medium. 100 μL of this solution was added to the cells to obtain a final compound concentration of 5 μM ([…]). After 18 hours incubation, a solution of MTT in assay media (0.5 mg/mL) was added to each well and further incubated for 4 to 6 hours, followed by addition of cell lysis buffer (15% w/v SDS and 0.12% v/v 12N HCl aqueous solution), incubated overnight, and then absorbance measured at 570 nm using 650 nm as reference using Tecan Infinite M200 plate reader.
Cell Viability Assay. THP-1 cells were plated in 96-well plates (10^5 cells/well) in 100 μL RPMI supplemented with 10% FBS, 100 U/mL penicillin, and 100 μg/mL streptomycin. Compounds were dissolved in DMSO at 1 mM stock solution and were further diluted to 10 μM in the assay medium. 100 μL of this solution was added to the cells to obtain a final compound concentration of 5 μM ([…]). After 18 h incubation, a solution of MTT in assay media (0.5 mg/mL) was added to each well and further incubated for 4-6 hours, followed by addition of cell lysis buffer (15% w/v SDS and 0.12% v/v 12 N HCl aqueous solution), incubation overnight, and then absorbance was measured at 570 nm using 650 nm as reference using Tecan Infinite M200 plate reader.

The subject of the next data set is NF-κB and ISRE. The data set is described as follows: NF-κB and ISRE reporter assays (primary screens), statements in words for both assays. To be noted: with LPS or IFN-α as primary stimulus; compared to compound 1. The protocol: (§1) THP1-Blue™ NF-κB cells were plated in 96-well plates at 10^5 cells/well in 100 μl RPMI supplemented with 10% fetal bovine serum (FBS, Omega Scientific, Inc., Tarzana, Calif.), 100 U/mL penicillin, 100 μg/ml streptomycin (Thermo Fisher Scientific) and Normocin (Invivogen). LPS was prepared in assay medium at a concentration of 20 μg/mL. Tested compounds were dissolved in DMSO at 1 mM as a stock solution and were further diluted in the LPS solution to a final concentration of 10 μM. 100 μL of this solution was then transferred to the plated cells to obtain a final concentration of LPS at 10 μg/mL and compound at 5 μM ([…]). The culture supernatants were harvested after a 20 hour incubation period, SEAP activity in the culture supernatants was determined by a colorimetric assay using QuantiBlue (Invivogen). Plate absorbance was read at 630 nm using a Tecan Infinite M200 plate reader (Männedorf, Switzerland). The SEAP concentration was directly proportional to NF-κB activity, which was 2-point normalized to yield activity of compound 1+LPS as 200% and activity for LPS as 100%.
(§2) ISRE-bla THP-1 cells were plated in 96-well plates at 5×10^4 cells/well in 50 μl RPMI supplemented with 10% dialyzed FBS (Atlanta Biologicals, Inc., GA), 0.1 mM nonessential amino acids, 1 mM sodium pyruvate, 100 U/mL penicillin and 100 μg/ml streptomycin. Type I IFN-α (R&D Systems, #11200-2) solution was prepared in assay medium at a concentration of 200 U/mL Tested compounds were dissolved in DMSO at 1 mM and were further diluted in the IFN-α solution to a final concentration of 10 μM. 50 μL of this solution was then transferred to the plated cells to obtain a final concentration of IFN-α at 100 U/mL and compound at 5 μM ([…]), The cells were incubated for 16 hours, after which 20 μL of 6×LiveBLAzer™ FRET B/G Substrate (CCF4-AM) mixture (prepared according to the manufacturer's instructions) was added to each well, Plates were incubated at room temperature in the dark for 3 hours. Fluorescence was measured on a Tecan Infinite M200 plate reader at an excitation wavelength of 405 nm, and emission wavelengths of 465 nm and 535 nm. Background values (cell free wells at the same fluorescence wavelength) were subtracted from the raw fluorescence intensity values and the emission ratios were calculated as the ratio of background subtracted fluorescence intensities at 465 nm to background subtracted fluorescence intensities at 535 nm. The ISRE activity values for these compounds were 2-point normalized to yield activity of compound 1+IFN-α as 200% and activity for IFN-α as 100%.
(§3) Measurement of NF-κB Activation Using THP1-Blue NF-κB Cells. THP1-Blue NF-κB cells were plated in 96-well plates at 10^5 cells/well in 100 μL of RPMI supplemented with 10% fetal bovine serum (FBS, Omega Scientific, Inc., Tarzana, Calif.), 100 U/mL penicillin, 100 μg/mL streptomycin (Thermo Fisher Scientific), and Normocin (Invivogen). LPS was prepared in assay medium at a concentration of 20 μg/mL. Tested compounds were dissolved in DMSO at 1 mM as a stock solution and were further diluted in the LPS solution to a final concentration of 10 μM. 100 μL of this solution was then transferred to the plated cells to obtain a final concentration of LPS at 10 μg/mL and compound at 5 μM ([…]). The culture supernatants were harvested after a 20 hours incubation period. SEAP activity in the culture supernatants was determined by a colorimetric assay using QuantiBlue (Invivogen). Plate absorbance was read at 630 nm using a Tecan Infinite M200 plate reader (Mannedorf, Switzerland). The SEAP concentration was directly proportional to NF-κB activity, which was two-point normalized to yield activity of compound 1+LPS as 200% and activity for LPS as 100%.
Measurement of ISRE Activity in ISRE-bla THP-1 Cells. […]
On the technique in general: Reporter assays use an easily measured gene product as a stand-in for the process of interest.

Another data set has as its system ISRE. The data set can be described thus: Measurement of ISRE activity in ISRE-bla THP-1 cells (FRET, IFN-α as primary stimulus). To be noted: compound 5 μM + IFN-α 100 U/mL, 16 hours, two point normalized: compound 1 + IFN-α = 200%, IFN-α = 100%, mean; for activity at 5 µM: Homo sapiens, THP-1, read-out: ISRE % Activation. The protocol:
as §2
Measurement of ISRE Activity in ISRE-bla THP-1 Cells. ISREbla THP-1 cells were plated in 96-well plates at 5×10^4 cells/well in 50 μL of RPMI supplemented with 10% dialyzed FBS (Atlanta Biologicals, Inc., GA), 0.1 mM nonessential amino acids, 1 mM sodium pyruvate, 100 U/mL penicillin, and 100 μg/mL streptomycin. Type I IFN-α (R&D Systems, no. 11200-2) solution was prepared in assay medium at a concentration of 200 U/mL. Tested compounds were dissolved in DMSO at 1 mM and were further diluted in the IFN-α solution to a final concentration of 10 μM. 50 μL of this solution was then transferred to the plated cells to obtain a final concentration of IFN-α at 100 U/mL and compound at 5 μM ([…]). The cells were incubated for 16 hours, after which 20 μL of 6×LiveBLAzer FRET B/G substrate (CCF4-AM) mixture (prepared according to the manufacturer's instructions) was added to each well. Plates were incubated at room temperature in the dark for 3 hours. Fluorescence was measured on a Tecan Infinite M200 plate reader at an excitation wavelength of 405 nm and emission wavelengths of 465 and 535 nm. Background values (cell free wells at the same fluorescence wavelength) were subtracted from the raw fluorescence intensity values and the emission ratios were calculated as the ratio of background subtracted fluorescence intensities at 465 nm to background subtracted fluorescence intensities at 535 nm. The ISRE activity values for these compounds were two-point normalized to yield activity of compound 1+IFN-α as 200% and activity for IFN-α as 100%.

In the next data set the test system is NF-κB. The data set can be described thus: Measurement of NF-κB activation using THP1-Blue NF-κB cells (SEAP reporter, LPS as primary stimulus). To be noted: compound 5 μM + LPS, 20 hour incubation; two point normalized: compound 1 + LPS = 200%, LPS = 100%; mean. The protocol:
as §1, §3

The values that follow come from patent US20220305121A1, “N-ARYL SULFONAMIDE DERIVATIVES AS VACCINE ADJUVANT” (The Regents of the University of California, priority 2019, published 2022).

With “N-(9-(2-carboxy-44(34(N-(4-chloro-2,5-dimethoxyphenyl)-4-ethoxyphenyl)sulfonamido)propyl)carbamoyl)phenyl)-6-(diethylamino)-3H-xanthen-3-ylidene)-N-ethylethanaminium [Compound 57]”, in the data set on THP-1 cells, the “MTT % Viability” value was found to be 76.9%. Also, in the data set with NF-κB and ISRE, the “activity in NF-κB and ISRE assays (in words)” value (shortened to “activity … (in words)”) was “reduced activity compared to compound 1”. Also, the “ISRE % Activation” value in the data set with ISRE is 123%. The “NF-κB % Activation” value with NF-κB was determined as 111%.
As to `CCOc1ccc(S(=O)(=O)Nc2cc(OC)c(N=[N+]=[N-])cc2OC)cc1` [Compound 59, N-(4-azido-2,5-dimethoxyphenyl)-4-ethoxybenzenesulfonamide], the “MTT % Viability” value with THP-1 cells turned out to be 76.6%. Further, the “activity … (in words)” value in the data set on NF-κB and ISRE is “potent”.
As to `COc1cc(NS(=O)(=O)c2ccc(C(=O)O)cc2)c(OC)cc1Cl` [Compound 28, 4-(N-(4-chloro-2,5-dimethoxyphenyl)sulfamoyl)benzoic acid], the “MTT % Viability” value in the data set on THP-1 cells was determined as 98.2%. Besides, the “activity … (in words)” value with NF-κB and ISRE was “lost activity”.
As for `CCOc1ccc(NS(=O)(=O)c2cc(OC)c(Cl)cc2OC)cc1` [Compound 31, 4-Chloro-N-(4-ethoxyphenyl)-2,5-dimethoxybenzenesulfonamide], the “activity … (in words)” value with NF-κB and ISRE is reported as “inactivity”.
As for `COc1cc(NS(=O)(=O)c2ccc(OC)c(N=[N+]=[N-])c2)c(OC)cc1Cl` [Compound 61, 3-Azido-N-(4-chloro-2,5-dimethoxyphenyl)-4-methoxybenzenesulfonamide], the “MTT % Viability” value in the data set on THP-1 cells was 87.2%. Moreover, the “activity … (in words)” value in the data set on NF-κB and ISRE is “inactive”.
As to `COc1ccc(S(=O)(=O)Nc2cc(OC)c(Cl)cc2OC)cc1N` [Compound 60, 3-Amino-N-(4-chloro-2,5-dimethoxyphenyl)-4-methoxybenzenesulfonamide], the “MTT % Viability” value in the data set on THP-1 cells was determined as 77.3%. The “activity … (in words)” value in the data set on NF-κB and ISRE is “resurgence of activity”.
In the case of `CCOC(=O)CCCN(c1cc(OC)c(Cl)cc1OC)S(=O)(=O)c1ccc(OCC)cc1` [Compound 50, Ethyl 4-((N-(4-chloro-2,5-dimethoxyphenyl)-4-ethoxyphenyl)sulfonamido)butanoate], in the data set on THP-1 cells, the “MTT % Viability” value is listed as 80.1%. The activity at 5 µM in the data set on ISRE and in the data set on NF-κB was 199% throughout.
In the case of `COc1cc(NS(=O)(=O)c2ccc(C#N)cc2)c(OC)cc1Cl` [Compound 19, N-(4-chloro-2,5-dimethoxyphenyl)-4-cyanobenzenesulfonamide], the “MTT % Viability” value in the data set with THP-1 cells came out at 102.9%. Further, the activity at 5 µM came to 106% in the data set on ISRE and 97% with NF-κB.
On to `COc1cc(NS(=O)(=O)c2ccc(CN)cc2)c(OC)cc1Cl` [Compound 21, 4-(aminomethyl)-N-(4-chloro-2,5-dimethoxyphenyl)benzenesulfonamide], for which the “MTT % Viability” value in the data set with THP-1 cells is 97.0%. Also, the activity at 5 µM in the data set with ISRE is 111%; with NF-κB, 103%.
In the same order, the values of `CCCCCCN(c1cc(OC)c(Cl)cc1OC)S(=O)(=O)c1ccc(OCC)cc1` [Compound 37, N-(4-chloro-2,5-dimethoxyphenyl)-4-ethoxy-N-hexylbenzenesulfonamide] are 95.2%, 99% and 81%.
With `CCCCCN(c1cc(OC)c(Cl)cc1OC)S(=O)(=O)c1ccc(OCC)cc1` [Compound 36, N-(4-chloro-2,5-dimethoxyphenyl)-4-ethoxy-N-pentylbenzenesulfonamide], in the data set on THP-1 cells, the “MTT % Viability” value amounted to 72.9%. In addition, the activity at 5 µM turned out to be 105% in the data set on ISRE and 135% in the data set with NF-κB.
Turning to `COC(=O)c1ccc(S(=O)(=O)Nc2cc(OC)c(Cl)cc2OC)cc1` [Compound 26, Methyl 4-(N-(4-chloro-2,5-dimethoxyphenyl)sulfamoyl)benzoate], in the data set on THP-1 cells, the “MTT % Viability” value was 74.4%. Further, the activity at 5 µM in the data set on ISRE was 202%; in the data set on NF-κB, 191%.
For `C#CCCN(c1cc(OC)c(Cl)cc1OC)S(=O)(=O)c1ccc(OCC)cc1` [Compound 43, N-(but-3-yn-1-yl)-N-(4-chloro-2,5-dimethoxyphenyl)-4-ethoxybenzenesulfonamide] the same measures were 70.1%, 201% and 206%.
